According to ChEMBL document CHEMBL1201862, “PubChem BioAssay data set” (2004):
One block for each compound: values may come before it. The source made the active and inactive calls.

How the values were obtained:
[1] = molecular target: Mitogen-activated protein kinase 10 (Homo sapiens, UniProt P53779); assay: Dose response biochemical screening assay for inhibitors of c-Jun N-Terminal Kinase 3 (JNK3). [Related pubchem assays: 746 ]
[2] = molecular target: FAD-linked sulfhydryl oxidase ALR (Homo sapiens, UniProt P55789); assay: ALR-catalysed DTT oxidation blockers – biochemical, H2O2 detection, luminescence, cherry-pick, dose response (AID 493248)
Sequence of FAD-linked sulfhydryl oxidase ALR (P55789 whole entry): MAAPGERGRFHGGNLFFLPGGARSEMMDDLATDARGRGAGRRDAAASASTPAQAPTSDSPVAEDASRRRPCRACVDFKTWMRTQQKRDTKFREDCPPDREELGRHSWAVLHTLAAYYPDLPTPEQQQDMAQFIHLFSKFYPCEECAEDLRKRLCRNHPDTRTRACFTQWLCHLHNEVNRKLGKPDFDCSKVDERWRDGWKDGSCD

[3] = molecular target: T1, Heat shock factor protein 1 (Mus musculus, UniProt P38532); assay: enhancement of HSF1-driven luciferase signal – cell-based, NIH3T3, luminescence, dose retest, confirmation (AID 435004); assay type: functional;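 further: stress induced by proteasome inhibitor MG132 added 30 min after compound; luciferase reporter driven by HSF1 response element in NIH3T3 cells; actives raise luminescence as potentiators of the MG132 stress response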
T1 sequence (P38532 whole entry): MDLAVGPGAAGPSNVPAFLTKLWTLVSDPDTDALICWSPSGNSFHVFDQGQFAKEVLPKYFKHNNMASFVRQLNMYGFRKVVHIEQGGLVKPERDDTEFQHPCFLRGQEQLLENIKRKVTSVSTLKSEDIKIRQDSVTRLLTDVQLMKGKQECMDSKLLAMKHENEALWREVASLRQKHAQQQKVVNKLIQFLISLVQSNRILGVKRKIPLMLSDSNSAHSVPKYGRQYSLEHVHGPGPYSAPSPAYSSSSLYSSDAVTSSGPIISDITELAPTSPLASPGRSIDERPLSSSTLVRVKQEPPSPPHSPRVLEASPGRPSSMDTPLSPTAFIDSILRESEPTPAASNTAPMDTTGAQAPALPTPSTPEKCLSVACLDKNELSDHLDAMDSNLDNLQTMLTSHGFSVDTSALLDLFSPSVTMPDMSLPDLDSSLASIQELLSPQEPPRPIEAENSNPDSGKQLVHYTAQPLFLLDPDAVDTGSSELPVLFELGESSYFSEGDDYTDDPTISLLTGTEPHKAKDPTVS

[4] = viability of uninfected HEp-2 cells – cell-based, HTS, cytotoxicity control for RSV inhibitor project, dose response (AID 2410); assay type: functional; settings: human respiratory syncytial virus
[5] = molecular target: T2, Aminopeptidase N (Plasmodium falciparum FcB1/Columbia, UniProt O96935); assay: malaria alanyl aminopeptidase activity blockers – biochemical, fluorogenic H-Leu-NHMec substrate, 1536-well (AID 1445); set-up: species or system Plasmodium falciparum 3D7, 3D7
T2 sequence (O96935 whole entry): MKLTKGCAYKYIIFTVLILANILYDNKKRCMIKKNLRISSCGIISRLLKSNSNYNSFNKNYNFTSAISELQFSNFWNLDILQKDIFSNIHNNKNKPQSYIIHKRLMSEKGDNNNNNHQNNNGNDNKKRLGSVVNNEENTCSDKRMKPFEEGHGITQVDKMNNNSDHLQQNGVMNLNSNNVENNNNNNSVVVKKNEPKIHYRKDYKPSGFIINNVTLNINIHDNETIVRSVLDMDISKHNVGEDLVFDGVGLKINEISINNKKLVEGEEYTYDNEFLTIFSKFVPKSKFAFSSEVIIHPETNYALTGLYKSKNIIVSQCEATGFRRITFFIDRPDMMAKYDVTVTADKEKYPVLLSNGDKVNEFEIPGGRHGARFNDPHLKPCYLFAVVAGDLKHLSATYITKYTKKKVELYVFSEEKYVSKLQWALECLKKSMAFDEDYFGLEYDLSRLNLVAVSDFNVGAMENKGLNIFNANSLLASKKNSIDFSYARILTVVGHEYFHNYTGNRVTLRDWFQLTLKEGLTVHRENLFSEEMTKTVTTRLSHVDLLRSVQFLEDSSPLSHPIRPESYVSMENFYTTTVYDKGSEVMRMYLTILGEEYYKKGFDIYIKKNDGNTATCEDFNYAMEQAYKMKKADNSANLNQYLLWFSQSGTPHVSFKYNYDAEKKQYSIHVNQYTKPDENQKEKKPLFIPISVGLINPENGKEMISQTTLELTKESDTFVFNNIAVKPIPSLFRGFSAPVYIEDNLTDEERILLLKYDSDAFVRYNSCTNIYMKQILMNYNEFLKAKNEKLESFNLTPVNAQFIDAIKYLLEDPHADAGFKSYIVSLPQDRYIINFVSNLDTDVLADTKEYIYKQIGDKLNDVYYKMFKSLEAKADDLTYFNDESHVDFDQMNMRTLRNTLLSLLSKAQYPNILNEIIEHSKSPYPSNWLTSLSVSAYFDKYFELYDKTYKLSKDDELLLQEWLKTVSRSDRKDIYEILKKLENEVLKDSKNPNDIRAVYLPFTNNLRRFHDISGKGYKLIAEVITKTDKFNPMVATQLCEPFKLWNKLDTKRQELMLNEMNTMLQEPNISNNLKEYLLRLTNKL

[6] = molecular target: Caspase-6 (Homo sapiens, UniProt P55212); assay: inhibition of CASP6 peptide cleavage – biochemical, VEID-R110 fluorescence, cherry-pick, dose response (AID 720632)
Sequence of Caspase-6 (P55212 24-179 limits assumed): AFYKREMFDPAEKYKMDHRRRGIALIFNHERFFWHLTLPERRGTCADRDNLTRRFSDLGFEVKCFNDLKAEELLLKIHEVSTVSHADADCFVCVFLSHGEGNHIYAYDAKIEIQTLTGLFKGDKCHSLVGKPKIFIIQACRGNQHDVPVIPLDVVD
Sequence of Caspase-6 (P55212 194-293 limits assumed): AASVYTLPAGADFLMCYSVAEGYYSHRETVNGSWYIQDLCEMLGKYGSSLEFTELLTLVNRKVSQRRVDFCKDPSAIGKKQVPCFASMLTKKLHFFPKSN

[7] = molecular target: Paired box protein Pax-8 (Homo sapiens, UniProt Q06710); assay: PAX8 transcriptional activity inhibition in RMG-I – RMG-I cells, luciferase, cherry-pick, dose response (AID 687027); assay type: functional, cell-based;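 further: luciferase reporter driven by Pax8 target thyroperoxidase promoter measured by SteadyGlo luminescence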
Sequence of Paired box protein Pax-8 (Q06710 whole entry): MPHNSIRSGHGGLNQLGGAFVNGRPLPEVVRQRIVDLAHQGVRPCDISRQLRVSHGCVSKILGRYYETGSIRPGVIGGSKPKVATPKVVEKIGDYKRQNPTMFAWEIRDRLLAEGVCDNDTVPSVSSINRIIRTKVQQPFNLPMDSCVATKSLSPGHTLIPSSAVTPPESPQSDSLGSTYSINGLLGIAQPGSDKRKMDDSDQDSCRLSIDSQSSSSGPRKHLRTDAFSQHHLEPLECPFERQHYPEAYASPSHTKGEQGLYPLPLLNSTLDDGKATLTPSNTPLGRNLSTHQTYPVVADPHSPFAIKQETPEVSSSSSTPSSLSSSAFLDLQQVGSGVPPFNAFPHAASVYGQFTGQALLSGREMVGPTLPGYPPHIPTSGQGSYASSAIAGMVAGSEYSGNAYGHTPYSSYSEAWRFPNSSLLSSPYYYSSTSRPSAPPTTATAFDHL

[8] = Shn3 3'UTR reporter signal decrease – cell-based, Clone20 osteoblasts, firefly luciferase, cherry-pick, set 2, Schnurri-3 inhibitor project, dose response (AID 720490); assay type: functional;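 further: actives lower the luminescence signal as inhibitors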
[9] = loss of viability in HepG2 cells – cell-based, CellTiter-Glo, cherry-picked, cytotoxicity control for Shn3 inhibitor project, dose response (AID 624134); assay type: functional
[10] = reduction of Shn3 3'UTR-driven luciferase in osteoblasts – cell-based, Clone20 osteoblasts, firefly luciferase, cherry-picked, dose response (AID 624132); assay type: functional;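 further: firefly luciferase luminescence from reporter carrying the Shn3 3'UTR in osteoblasts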
[11] = reduced cellular PGC1a acetyl-lysine signal – cell-based, cherry-picked samples, dose response (AID 720514); assay type: functional;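 further: potency may reflect raised or lowered acetylation signal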
[12] = non-specific 3'UTR reporter inhibition in Clone20-Shn3RL – cell-based, Renilla luciferase, cherry-picked, counter-screen for Shn3 inhibitor project, dose response (AID 624133); assay type: functional
[13] = general cell-killing toxicity readout – plate reader, dry powder samples, cytotoxicity control for PAX8 inhibitor project, dose response (AID 743021); assay type: functional, cell-based
[14] = EF1alpha-driven Renilla reporter with control 3'UTR suppression – Clone20-Shn3RL cells, dual-Glo, cherry-pick, set 2, counter-screen for Shn3 3'UTR targeting project, dose response (AID 720724); assay type: functional, cell-based; settings: Dual-Go Shn3RL
[15] = molecular target: Cytochrome P450 2C19 (Homo sapiens, UniProt P33261); assay: qHTS Assay for Inhibitors and Substrates of Cytochrome P450 2C19. [Related pubchem assays: 410 ]; assay type: ADME; settings: read-out: Potency
Sequence of Cytochrome P450 2C19 (P33261 whole entry): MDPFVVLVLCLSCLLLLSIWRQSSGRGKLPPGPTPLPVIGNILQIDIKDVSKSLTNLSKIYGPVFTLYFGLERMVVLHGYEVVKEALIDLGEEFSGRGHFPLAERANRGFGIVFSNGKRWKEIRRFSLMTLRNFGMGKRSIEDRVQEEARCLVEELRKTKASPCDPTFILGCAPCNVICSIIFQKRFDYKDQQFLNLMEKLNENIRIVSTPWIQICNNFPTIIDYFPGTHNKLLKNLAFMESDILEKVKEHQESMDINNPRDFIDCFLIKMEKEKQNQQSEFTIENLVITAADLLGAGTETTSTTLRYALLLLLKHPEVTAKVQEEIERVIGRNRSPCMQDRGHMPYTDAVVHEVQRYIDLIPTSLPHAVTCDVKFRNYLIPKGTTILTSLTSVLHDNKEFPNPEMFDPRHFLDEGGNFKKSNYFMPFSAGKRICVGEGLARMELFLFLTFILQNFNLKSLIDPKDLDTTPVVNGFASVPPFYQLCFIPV

Sequence of Mitogen-activated protein kinase 10 (P53779 whole entry): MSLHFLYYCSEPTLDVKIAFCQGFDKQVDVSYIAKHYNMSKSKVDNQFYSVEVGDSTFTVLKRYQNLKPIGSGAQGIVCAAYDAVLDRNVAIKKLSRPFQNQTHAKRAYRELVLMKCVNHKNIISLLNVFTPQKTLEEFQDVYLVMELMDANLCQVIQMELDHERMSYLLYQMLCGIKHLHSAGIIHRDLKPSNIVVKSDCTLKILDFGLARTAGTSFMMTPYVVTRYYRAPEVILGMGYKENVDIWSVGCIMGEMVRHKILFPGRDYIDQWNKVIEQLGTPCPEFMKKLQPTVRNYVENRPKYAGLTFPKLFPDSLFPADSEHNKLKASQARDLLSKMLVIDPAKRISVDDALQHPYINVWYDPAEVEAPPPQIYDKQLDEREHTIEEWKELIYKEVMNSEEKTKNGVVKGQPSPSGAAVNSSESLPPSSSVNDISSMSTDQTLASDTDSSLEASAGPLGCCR

IC50 [1]: 18.4 µM (not active)
AC50 [2]: 0.773 µM (active)
SMILES: c1ccc(Nc2ccccc2Nc2ccccn2)nc1

AC50 [15]: 15.8 µM (inconclusive)
SMILES: O=c1cc(-c2ccc(O)c(O)c2)oc2cccc(O)c12

Continued, compound first:

SMILES: CCOC(=O)COc1ccc(Br)cc1/C=C/c1nc(O)nc(O)c1[N+](=O)[O-]
EC50 [3]: 15.6 µM (active)
CC50 [4]: 12.7 µM (active)
IC50 [5]: 25.4 µM (active)
AC50 [6]: 5.09 µM (active)

SMILES: Oc1nc2ccccc2n1C1CCN(C(CCc2ccccc2)c2nnnn2Cc2ccccc2)CC1 (stereo unspecified)
AC50 [7]: 1.4 µM (active)
AC50 [8]: 3.97 µM (active)
AC50 [9]: 13.5 µM (active)
AC50 [10]: 1.23 µM (active)
AC50 [11]: 3.88 µM (active)
AC50 [12]: 60.9 µM (active)
AC50 [13]: 11.4 µM (active)
AC50 [14]: 20.3 µM (active)

SMILES: O=C(Cc1cccs1)N1Cc2ccccc2-n2nncc2C1
AC50 [6]: 5.36 µM (active)
